Target: ABCB1 (P-glycoprotein, P-gp) (Homo sapiens, UniProt P08183)
Experiment: Pgp-Glo ATPase assay: inhibition of verapamil-stimulated ABCB1 ATPase
Type: biochemical

Chain of ABCB1 (P-glycoprotein, P-gp) (P08183 whole entry): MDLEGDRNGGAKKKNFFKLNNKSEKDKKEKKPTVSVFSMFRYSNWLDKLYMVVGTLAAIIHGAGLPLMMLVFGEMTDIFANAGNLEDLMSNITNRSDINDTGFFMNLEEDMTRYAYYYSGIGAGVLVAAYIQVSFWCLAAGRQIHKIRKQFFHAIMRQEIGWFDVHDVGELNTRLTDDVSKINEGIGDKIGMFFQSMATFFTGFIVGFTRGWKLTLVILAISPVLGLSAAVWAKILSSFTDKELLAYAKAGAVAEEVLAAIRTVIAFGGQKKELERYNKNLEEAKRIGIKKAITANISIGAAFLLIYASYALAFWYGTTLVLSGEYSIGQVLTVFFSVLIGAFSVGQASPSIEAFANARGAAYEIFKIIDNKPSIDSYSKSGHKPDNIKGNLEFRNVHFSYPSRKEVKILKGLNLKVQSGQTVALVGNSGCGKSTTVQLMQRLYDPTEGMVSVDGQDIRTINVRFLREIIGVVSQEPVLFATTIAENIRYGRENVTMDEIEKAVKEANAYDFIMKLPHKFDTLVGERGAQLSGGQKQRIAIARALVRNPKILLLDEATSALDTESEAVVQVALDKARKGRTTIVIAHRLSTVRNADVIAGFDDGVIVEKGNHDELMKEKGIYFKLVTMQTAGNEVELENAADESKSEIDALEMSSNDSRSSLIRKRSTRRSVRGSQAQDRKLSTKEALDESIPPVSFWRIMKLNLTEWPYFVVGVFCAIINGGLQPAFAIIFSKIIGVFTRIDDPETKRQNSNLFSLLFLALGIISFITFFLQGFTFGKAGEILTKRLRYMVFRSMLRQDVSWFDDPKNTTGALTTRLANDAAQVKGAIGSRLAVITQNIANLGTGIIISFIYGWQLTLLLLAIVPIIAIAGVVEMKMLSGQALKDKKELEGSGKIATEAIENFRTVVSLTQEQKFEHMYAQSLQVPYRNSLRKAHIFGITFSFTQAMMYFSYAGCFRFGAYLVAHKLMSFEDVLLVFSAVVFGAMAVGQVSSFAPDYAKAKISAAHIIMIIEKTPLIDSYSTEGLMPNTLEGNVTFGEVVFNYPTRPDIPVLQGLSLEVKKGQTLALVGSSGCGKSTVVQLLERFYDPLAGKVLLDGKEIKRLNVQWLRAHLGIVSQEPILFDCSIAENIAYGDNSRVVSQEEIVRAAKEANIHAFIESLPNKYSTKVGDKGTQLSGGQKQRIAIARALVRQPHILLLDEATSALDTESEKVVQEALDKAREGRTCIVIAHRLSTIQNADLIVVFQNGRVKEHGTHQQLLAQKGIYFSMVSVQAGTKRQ

`CC(C)=CC/C=C(\C)[C@H]1CC[C@]2(C)[C@@H]1[C@H](O)C[C@@H]1[C@@]3(C)CC[C@H](O[C@@H]4O[C@H](CO)[C@@H](O)[C@H](O)[C@H]4O[C@@H]4O[C@H](CO)[C@@H](O)[C@H](O)[C@H]4O)C(C)(C)[C@@H]3CC[C@]12C` [Rg5, Ginsenoside Rg5] showed an IC50 of 9.16 µM.
